Measurements: ChEMBL document CHEMBL5038569, “Targeting RECQL5 Functions, by a Small Molecule, Selectively Kills Breast Cancer in Vitro and in Vivo” (J Med Chem, 2021)
Activity calls are given as the source filed them. The rule behind the calls is not given here.

Assays:
MCF7 [1] = assay: Induction of DNA damage in RECQL5 knock out human MCF7 cells assessed as double strand breaks by measuring increase in phosphorylation of CHK2 at T68 residue at 20 uM measured up to 24 hrs by Western blot analysis; format: functional, cell-based; conditions: time hrs <=24
MCF7 [2] = assay: Inhibition of homologous recombinant repair in RECQL5 knock out human MCF7 cells expressing SceGFP/iGFP mutants assessed as I-SceI induced generation of resected double stand breaks by measuring GFP-expressing cells at 10 uM measured after 48 hrs by flow cytometry analysis; format: functional, cell-based
MCF7 [3] = assay: Induction of mitotic catastrophe phenotype in human cisplatin-resistant MCF7 cells assessed as nuclear bridge formation at 20 uM pretreated with cisplatin for 8 hrs followed by compound addition and measured after 24 hrs by immunofluorescence microscopic analysis; format: functional, cell-based
MCF7 [4] = assay: Induction of apoptosis in human MCF7 cells expressing wild type RECQL5 assessed as increase in sub-G1 cell population measured after 72 hrs by propidium iodide/RNase A staining based flow cytometric analysis; format: functional; conditions: dose 2.5-20 µM
MCF7 [5] = assay: Effect on NHEJ-mediated double strand break repair in RECQL5 knock out human MCF7 cells assessed as accumulation of DNA-dependent protein kinase on chromatin at 20 uM measured up to 24 hrs by Western blot analysis; format: cell-based; conditions: time hrs <=24
MCF7 [6] = assay: Induction of mitotic catastrophe phenotype in human MCF7 cells assessed as fused nucleus at 20 uM pretreated with cisplatin for 8 hrs followed by compound addition and measured after 24 hrs by immunofluorescence microscopic analysis; format: functional, cell-based
MCF7 [7] = assay: Induction of DNA damage in RECQL5 knock out human MCF7 cells assessed as double strand breaks by measuring increase in gamma-H2AX foci formation incubated for 24 hrs by immunofluorescence microscopic analysis; format: functional, cell-based
[8] = Cytotoxicity against human MCF-10A cells expressing RECQL5 assessed as cell growth inhibition measured after 72 hrs by MTT assay; format: toxicity, cell-based
[9] = Selectivity ratio of IC20 for cytotoxicity against human MCF-10A cells expressing RECQL5 to IC20 for cytotoxicity against human MCF7 cells expressing RECQL5; format: toxicity, cell-based
MCF7 [10] = assay: Induction of DNA damage in RECQL5 knock out human MCF7 cells assessed as double strand breaks by measuring increase in phosphorylation of p53 at S15 residue at 20 uM measured up to 24 hrs by Western blot analysis; format: functional, cell-based; conditions: time hrs <=24
MCF7 [11] = assay: Induction of mitotic catastrophe phenotype in human MCF7 cells assessed as micronucleus formation at 20 uM pretreated with cisplatin for 8 hrs followed by compound addition and measured after 24 hrs by immunofluorescence microscopic analysis; format: functional, cell-based
MCF7 [12] = assay: Inhibition of homologous recombinant repair in human MCF7 cells expressing RECQL5 wildtype/ SceGFP/iGFP mutants assessed as I-SceI induced generation of resected double stand breaks by measuring GFP-expressing cells at 10 uM measured after 48 hrs by flow cytometry analysis; format: functional, cell-based
MCF7 [13] = assay: Effect on NHEJ-mediated double strand break repair in RECQL5 knock out human MCF7 cells assessed as accumulation of KU80 on chromatin at 20 uM measured up to 24 hrs by Western blot analysis; format: cell-based; conditions: time hrs <=24
MCF7 [14] = assay: Induction of DNA damage in human MCF7 cells expressing wild type RECQL5 assessed as double strand breaks by measuring increase in phosphorylation of ATM at S1981 residue at 20 uM measured up to 24 hrs by Western blot analysis; format: functional, cell-based; conditions: time hrs <=24
Homo sapiens = species on record: Homo sapiens; assay: Inhibition of His-tagged human RECQL5 binding to [gamma 32P] labeled DNA substrate assessed as RECQL5-DNA complex formation at 10 uM preincubated for 30 mins followed by substrate addition and measured after 15 mins by gel electrophoresis and autoradiography method; conditions: time 45.0 min
MCF7 [15] = assay: Induction of DNA damage in human MCF7 cells expressing wild type RECQL5 assessed as double strand breaks by measuring increase in phosphorylation of CHK1 at S345 residue at 20 uM measured up to 24 hrs by Western blot analysis; format: functional, cell-based; conditions: time hrs <=24
MCF7 [16] = assay: Effect on homologous recombinant repair in RECQL5 knock out human MCF7 cells assessed as accumulation of RAD50 protein on chromatin at 20 uM incubated for 4 to 24 hrs by Western blot analysis; format: functional, cell-based; conditions: time 4-24 hrs
MCF7 [17] = assay: Induction of mitotic catastrophe phenotype in human MCF7 cells assessed as nuclear bridge formation at 20 uM pretreated with cisplatin for 8 hrs followed by compound addition and measured after 24 hrs by immunofluorescence microscopic analysis; format: functional, cell-based
MCF7 [18] = assay: Cytotoxicity against human MCF7 cells expressing RECQL5-RFP K58M helicase dead mutant assessed as sensitizing activity by measuring colony survival at 5 to 20 uM measured after 8 to 10 days by clonogenic survival assay; format: functional, cell-based; conditions: dose 5-20 µM, time 8-10 day
MCF7 [19] = assay: Cytotoxicity against human MCF7 cells with shRNA-mediated WRN depletion assessed as reduction in cell viability at 6 to 25 uM measured after 8 to 10 days by clonogenic survival assay; format: functional, cell-based; conditions: dose 6-25 µM, time 8-10 day
MCF7 [20] = assay: Reversal of RECQL5 knock out resistance phenotype in human MCF7 cells expressing RECQL5-RFP assessed as reduction in cell viability at 6 to 25 uM measured after 72 hrs by MTT assay; format: functional, cell-based; conditions: dose 6-25 µM
MCF7 [21] = assay: Cytotoxicity against human MCF7 cells with shRNA-mediated RECQL5 depletion assessed as reduction in cell viability at 6 to 25 uM measured after 8 to 10 days by clonogenic survival assay; format: functional, cell-based; conditions: dose 6-25 µM, time 8-10 day
[22] = Toxicity in […] mouse assessed as fold change in spleen cell count at 100 mg/kg, po administered as single dose via gavage measured after 30 days relative to control; format: organism-based; conditions: in vivo, 720 h, time 30 day
[23] = Toxicity in nude mouse xenografted with human MCF7 cells assessed as morphological changes in spleen at 50 mg/kg, po administered via oral gavage and measured after 30 days; format: organism-based; conditions: in vivo, 720 h, time 30 day
MCF7 [24] = assay: Cytotoxicity against human MCF7 cells expressing RECQL5-RFP wild type helicase assessed as sensitizing activity by measuring colony survival at 5 to 20 uM measured after 8 to 10 days by clonogenic survival assay; format: functional, cell-based; conditions: dose 5-20 µM, time 8-10 day
[25] = Chronic toxicity in […] mouse assessed as change in behavior at 100 mg/kg, po administered as single dose via gavage measured for 30 days; format: organism-based; conditions: in vivo, 720 h, time 30 day
T47D = assay: Cytotoxicity against ER/PR-positive HER2-negative CRISPR/Cas9 engineered human T47D cells expressing wild type RECQL5 and p53 mutant assessed as reduction in colony formation measured after 8 to 10 days by clonogenic survival assay; format: functional, cell-based; conditions: time 8-10 day
MCF7 [26] = assay: Induction of DNA damage in human MCF7 cells expressing wild type RECQL5 assessed as double strand breaks by measuring increase in phosphorylation of RPA2 at 20 uM measured after 4 to 24 hrs by Western blot analysis; format: functional, cell-based; conditions: time 4-24 hrs, TDE = time-dependent effect
MCF7 [27] = assay: Cytotoxicity against RECQL5 knock out human MCF7 cells assessed as cell growth inhibition measured after 72 hrs by MTT assay; format: functional; conditions: dose 6-50 µM

## O=C(Nc1cc(C(F)(F)F)cc(C(F)(F)F)c1)N[C@@H](c1ccccc1)c1nnc(SCc2ccccc2)o1
MCF7 [1]
  Activity: inactive
MCF7 [2]
  inhibition: inactive
MCF7 [3]
  Activity: Active
MCF7 [4]
  Activity: Dose-Dependent Effect
MCF7 [5]
  Activity: inactive
MCF7 [6]
  Activity: Active
MCF7 [7]
  Activity: inactive
[8]
  IC20 at 72 h: 33.4 µM
[9]
  selectivity ratio: 4
MCF7 [10]
  Activity: inactive
MCF7 [11]
  Activity: Active
MCF7 [12]
  inhibition: Active
MCF7 [13]
  Activity: inactive
MCF7 [14]
  Activity: Active
Homo sapiens
  inhibition: inactive
MCF7 [15]
  Activity: Active
MCF7 [16]
  Activity: inactive
MCF7 [17]
  Activity: Active
MCF7 [18]
  Activity: Active
MCF7 [19]
  Activity: Active
MCF7 [20]
  Activity: Active
MCF7 [21]
  Activity: inactive
[22]
  fold change (FC): 1.03
[23]
  Activity: Non-Toxic
MCF7 [24]
  Activity: Active
[25]
  Activity: Non-Toxic
T47D
  Activity: Active
MCF7 [26]
  Activity: Tde
MCF7 [27]
  IC20: 22.3 µM
